Measurements published in patent publication US20240210412A1, “SULFONYL-TRIAZOLE COMPOUNDS USEFUL AS LIGANDS AND INHIBITORS OF PROSTAGLANDIN REDUCTASE 2” (University of Virginia Patent Foundation, priority 2021, published 2024).

Legend:
Test in all cases: SILAC LC-MS ABPP
Type in all cases: cell-based
Details in all cases: 25 μM 2 h, live DM93 cells
[1] = molecular target: T1, Q8WVJ2 (Homo sapiens, UniProt Q8WVJ2)
T1 construct: endogenous in cells; host or cells: DM93 cells (SILAC), live-cell treatment
Summary of the method: (§1)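 Readout is SILAC heavy/light LC-MS/MS quantification of HHS-475-labelled tyrosine peptides, reflecting blockade of probe labelling by ligand. DM93 cells were pretreated with 25 μM SuTEx ligand (heavy) or DMSO (light) for 2 h at 37 °C, then probed with 100 μM HHS-475 for 2 h.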

[2] = molecular target: T2, Q86VS8 (Homo sapiens, UniProt Q86VS8)
T2 construct: endogenous in cells; host or cells: DM93 cells (SILAC), live-cell treatment
Summary of the method: as §1

[3] = molecular target: T3, O95163 (Homo sapiens, UniProt O95163)
T3 construct: endogenous in cells; host or cells: DM93 cells (SILAC)
Summary of the method: as §1

[4] = molecular target: T4, Q9BXS6 (Homo sapiens, UniProt Q9BXS6)
T4 construct: endogenous in cells; host or cells: DM93 cells (SILAC), treated live; soluble proteome analysed
Summary of the method: as §1

[5] = molecular target: T5, Q9BXJ9 (Homo sapiens, UniProt Q9BXJ9)
T5 construct: endogenous in cells; host or cells: DM93 cells (SILAC), treated live; soluble proteome analysed
Summary of the method: as §1

[6] = molecular target: T6, Q14978 (Homo sapiens, UniProt Q14978)
T6 construct: performing SuTEx compound screening directly in cells; endogenous in cells; host or cells: DM93 cells (SILAC), soluble fraction
Summary of the method: as §1

[7] = molecular target: T7, P09874 (Homo sapiens, UniProt P09874)
T7 construct: endogenous in cells; host or cells: DM93 cells (SILAC)
Summary of the method: as §1

[8] = molecular target: T8, O43390 (Homo sapiens, UniProt O43390)
T8 construct: endogenous in cells; host or cells: DM93
Summary of the method: as §1

[9] = molecular target: T9, Q16836 (Homo sapiens, UniProt Q16836)
T9 construct: performing SuTEx compound screening directly in cells; endogenous in cells; host or cells: DM93 cells (SILAC), soluble fraction
Summary of the method: as §1

[10] = molecular target: T10, Q00535 (Homo sapiens, UniProt Q00535)
T10 construct: performing SuTEx compound screening directly in cells; endogenous in cells; host or cells: DM93 cells (SILAC)
Summary of the method: as §1

[11] = molecular target: T11, P24534 (Homo sapiens, UniProt P24534)
T11 construct: endogenous in cells; host or cells: DM93 (SILAC)
Summary of the method: as §1

[12] = molecular target: T12, Q96BR5 (Homo sapiens, UniProt Q96BR5)
T12 construct: endogenous in cells; host or cells: DM93 cells (SILAC), treated live; soluble proteome analysed
Summary of the method: as §1

[13] = molecular target: T13, P62979 (Homo sapiens, UniProt P62979)
T13 construct: performing SuTEx compound screening directly in cells; endogenous in cells; host or cells: DM93 cells (SILAC)
Summary of the method: as §1

[14] = molecular target: T14, P36507 (Homo sapiens, UniProt P36507)
T14 construct: endogenous in cells; host or cells: DM93 (SILAC)
Summary of the method: as §1

[15] = molecular target: T15, Q9BPW8 (Homo sapiens, UniProt Q9BPW8)
T15 construct: endogenous in cells; host or cells: DM93 cells (SILAC), treated live; soluble proteome analysed
Summary of the method: as §1

[16] = molecular target: T16, O95373 (Homo sapiens, UniProt O95373)
T16 construct: endogenous in cells; host or cells: DM93 cells (SILAC)
Summary of the method: as §1

[17] = molecular target: T17, Q12931 (Homo sapiens, UniProt Q12931)
T17 construct: performing SuTEx compound screening directly in cells; endogenous in cells; host or cells: DM93 cells (SILAC)
Summary of the method: as §1

[18] = molecular target: T18, O15318 (Homo sapiens, UniProt O15318)
T18 construct: endogenous in cells; host or cells: DM93
Summary of the method: as §1

T16 sequence (O95373 whole entry): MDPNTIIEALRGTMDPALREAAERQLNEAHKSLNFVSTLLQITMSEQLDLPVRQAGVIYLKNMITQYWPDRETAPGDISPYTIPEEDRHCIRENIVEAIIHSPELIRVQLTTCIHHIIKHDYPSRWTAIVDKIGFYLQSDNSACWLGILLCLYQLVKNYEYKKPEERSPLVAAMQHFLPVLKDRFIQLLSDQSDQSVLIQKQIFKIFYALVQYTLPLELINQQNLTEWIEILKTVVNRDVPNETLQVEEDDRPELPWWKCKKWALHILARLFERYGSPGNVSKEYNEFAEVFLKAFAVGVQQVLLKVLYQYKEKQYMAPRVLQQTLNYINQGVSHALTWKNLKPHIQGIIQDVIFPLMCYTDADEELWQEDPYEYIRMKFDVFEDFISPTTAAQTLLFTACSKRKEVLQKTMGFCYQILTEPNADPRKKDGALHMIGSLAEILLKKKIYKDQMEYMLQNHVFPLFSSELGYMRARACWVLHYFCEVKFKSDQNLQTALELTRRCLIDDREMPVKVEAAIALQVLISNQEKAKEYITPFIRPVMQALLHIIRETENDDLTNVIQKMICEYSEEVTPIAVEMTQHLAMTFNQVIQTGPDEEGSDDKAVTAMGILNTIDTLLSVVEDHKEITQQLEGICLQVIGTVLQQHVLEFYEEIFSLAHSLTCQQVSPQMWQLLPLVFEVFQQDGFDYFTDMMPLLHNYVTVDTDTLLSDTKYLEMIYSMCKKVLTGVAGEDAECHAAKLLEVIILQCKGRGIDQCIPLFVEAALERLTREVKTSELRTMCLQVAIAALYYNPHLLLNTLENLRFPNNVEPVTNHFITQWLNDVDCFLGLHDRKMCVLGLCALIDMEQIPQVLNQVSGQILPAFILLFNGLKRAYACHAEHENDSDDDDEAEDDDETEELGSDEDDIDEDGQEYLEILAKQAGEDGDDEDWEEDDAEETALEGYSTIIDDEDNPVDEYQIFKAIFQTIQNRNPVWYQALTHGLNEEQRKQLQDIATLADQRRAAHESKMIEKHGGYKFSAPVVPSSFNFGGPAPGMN
T18 sequence (O15318 whole entry): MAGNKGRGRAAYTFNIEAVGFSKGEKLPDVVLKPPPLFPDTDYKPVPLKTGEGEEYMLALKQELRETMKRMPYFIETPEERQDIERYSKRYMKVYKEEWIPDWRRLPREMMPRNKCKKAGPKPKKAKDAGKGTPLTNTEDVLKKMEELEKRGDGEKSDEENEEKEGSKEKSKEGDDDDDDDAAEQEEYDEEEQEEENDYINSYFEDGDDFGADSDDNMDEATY
T14 sequence (P36507 whole entry): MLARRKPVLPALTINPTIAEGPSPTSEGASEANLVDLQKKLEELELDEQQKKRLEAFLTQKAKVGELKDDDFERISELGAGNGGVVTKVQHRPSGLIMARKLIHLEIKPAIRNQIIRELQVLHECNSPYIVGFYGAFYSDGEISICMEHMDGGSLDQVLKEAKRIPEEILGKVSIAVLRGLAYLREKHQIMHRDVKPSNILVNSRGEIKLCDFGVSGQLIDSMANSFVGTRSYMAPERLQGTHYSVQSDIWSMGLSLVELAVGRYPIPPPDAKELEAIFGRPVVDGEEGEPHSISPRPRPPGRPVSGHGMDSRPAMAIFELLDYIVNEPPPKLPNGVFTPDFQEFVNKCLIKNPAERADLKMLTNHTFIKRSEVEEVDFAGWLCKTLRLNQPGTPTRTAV
T7 sequence (P09874 whole entry): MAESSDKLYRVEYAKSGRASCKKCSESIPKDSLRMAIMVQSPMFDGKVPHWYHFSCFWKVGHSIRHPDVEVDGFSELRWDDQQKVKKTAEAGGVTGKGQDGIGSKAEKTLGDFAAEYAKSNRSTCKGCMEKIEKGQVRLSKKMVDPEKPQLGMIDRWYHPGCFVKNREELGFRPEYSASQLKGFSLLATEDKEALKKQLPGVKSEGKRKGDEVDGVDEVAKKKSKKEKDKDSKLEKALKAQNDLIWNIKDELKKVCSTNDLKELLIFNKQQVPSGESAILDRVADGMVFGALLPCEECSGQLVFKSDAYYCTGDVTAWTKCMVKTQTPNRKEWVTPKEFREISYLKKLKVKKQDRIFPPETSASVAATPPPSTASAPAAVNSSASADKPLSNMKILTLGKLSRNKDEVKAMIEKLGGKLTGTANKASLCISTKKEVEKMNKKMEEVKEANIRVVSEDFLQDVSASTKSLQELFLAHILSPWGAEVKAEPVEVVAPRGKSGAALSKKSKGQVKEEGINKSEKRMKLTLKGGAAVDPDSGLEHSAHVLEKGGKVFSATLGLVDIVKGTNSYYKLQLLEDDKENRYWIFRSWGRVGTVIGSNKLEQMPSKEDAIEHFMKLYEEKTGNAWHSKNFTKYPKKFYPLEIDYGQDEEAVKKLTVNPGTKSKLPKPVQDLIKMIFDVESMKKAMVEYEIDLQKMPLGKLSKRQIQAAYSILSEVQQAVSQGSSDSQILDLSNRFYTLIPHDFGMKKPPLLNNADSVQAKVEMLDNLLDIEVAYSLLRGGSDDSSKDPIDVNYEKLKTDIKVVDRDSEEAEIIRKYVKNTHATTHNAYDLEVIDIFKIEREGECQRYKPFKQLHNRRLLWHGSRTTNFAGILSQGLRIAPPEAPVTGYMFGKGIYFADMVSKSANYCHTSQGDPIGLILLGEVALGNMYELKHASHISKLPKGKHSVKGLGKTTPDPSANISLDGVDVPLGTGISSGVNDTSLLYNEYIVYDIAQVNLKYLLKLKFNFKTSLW
T9 sequence (Q16836 13-314): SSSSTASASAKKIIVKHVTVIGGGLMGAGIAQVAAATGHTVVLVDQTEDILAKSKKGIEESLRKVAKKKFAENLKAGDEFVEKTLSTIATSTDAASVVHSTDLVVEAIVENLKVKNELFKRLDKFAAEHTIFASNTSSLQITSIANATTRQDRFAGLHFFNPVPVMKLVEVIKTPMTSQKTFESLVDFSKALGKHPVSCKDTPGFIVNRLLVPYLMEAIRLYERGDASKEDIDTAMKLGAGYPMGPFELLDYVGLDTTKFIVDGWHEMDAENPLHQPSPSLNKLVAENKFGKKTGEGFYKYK
T4 sequence (Q9BXS6 whole entry): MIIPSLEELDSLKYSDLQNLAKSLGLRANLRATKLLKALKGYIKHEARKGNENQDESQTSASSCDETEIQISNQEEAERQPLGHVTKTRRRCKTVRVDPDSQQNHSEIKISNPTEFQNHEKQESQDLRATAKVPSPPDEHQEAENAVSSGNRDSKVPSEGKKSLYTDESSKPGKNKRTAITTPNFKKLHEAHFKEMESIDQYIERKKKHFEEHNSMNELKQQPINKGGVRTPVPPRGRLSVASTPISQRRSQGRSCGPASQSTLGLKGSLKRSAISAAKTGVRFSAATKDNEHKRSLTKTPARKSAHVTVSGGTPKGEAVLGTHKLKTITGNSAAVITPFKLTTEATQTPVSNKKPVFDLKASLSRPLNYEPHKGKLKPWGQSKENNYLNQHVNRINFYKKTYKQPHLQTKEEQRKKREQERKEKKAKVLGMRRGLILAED
T11 sequence (P24534 whole entry): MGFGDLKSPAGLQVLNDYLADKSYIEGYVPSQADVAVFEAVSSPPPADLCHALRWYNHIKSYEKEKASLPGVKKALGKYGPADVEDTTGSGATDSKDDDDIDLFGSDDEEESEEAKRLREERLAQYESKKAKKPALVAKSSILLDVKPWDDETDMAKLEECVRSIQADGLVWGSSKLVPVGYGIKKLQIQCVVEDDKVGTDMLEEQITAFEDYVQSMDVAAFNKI
T8 sequence (O43390 whole entry): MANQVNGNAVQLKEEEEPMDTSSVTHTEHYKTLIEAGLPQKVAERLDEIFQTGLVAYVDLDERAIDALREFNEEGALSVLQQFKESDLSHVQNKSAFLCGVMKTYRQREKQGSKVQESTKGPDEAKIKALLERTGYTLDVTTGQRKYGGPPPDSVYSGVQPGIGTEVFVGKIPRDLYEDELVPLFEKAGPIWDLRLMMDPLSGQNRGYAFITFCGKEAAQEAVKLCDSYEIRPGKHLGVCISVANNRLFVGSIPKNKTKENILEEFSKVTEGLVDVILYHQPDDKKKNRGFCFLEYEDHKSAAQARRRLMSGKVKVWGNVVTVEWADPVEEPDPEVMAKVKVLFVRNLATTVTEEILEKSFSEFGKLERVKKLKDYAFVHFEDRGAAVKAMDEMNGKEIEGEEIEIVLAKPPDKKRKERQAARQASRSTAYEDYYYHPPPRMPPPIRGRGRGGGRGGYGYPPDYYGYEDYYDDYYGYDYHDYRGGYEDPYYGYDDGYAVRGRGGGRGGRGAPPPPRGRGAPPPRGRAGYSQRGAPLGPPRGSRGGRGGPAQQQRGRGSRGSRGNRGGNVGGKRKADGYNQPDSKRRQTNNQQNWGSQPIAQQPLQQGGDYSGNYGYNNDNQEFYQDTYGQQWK
T2 sequence (Q86VS8 whole entry): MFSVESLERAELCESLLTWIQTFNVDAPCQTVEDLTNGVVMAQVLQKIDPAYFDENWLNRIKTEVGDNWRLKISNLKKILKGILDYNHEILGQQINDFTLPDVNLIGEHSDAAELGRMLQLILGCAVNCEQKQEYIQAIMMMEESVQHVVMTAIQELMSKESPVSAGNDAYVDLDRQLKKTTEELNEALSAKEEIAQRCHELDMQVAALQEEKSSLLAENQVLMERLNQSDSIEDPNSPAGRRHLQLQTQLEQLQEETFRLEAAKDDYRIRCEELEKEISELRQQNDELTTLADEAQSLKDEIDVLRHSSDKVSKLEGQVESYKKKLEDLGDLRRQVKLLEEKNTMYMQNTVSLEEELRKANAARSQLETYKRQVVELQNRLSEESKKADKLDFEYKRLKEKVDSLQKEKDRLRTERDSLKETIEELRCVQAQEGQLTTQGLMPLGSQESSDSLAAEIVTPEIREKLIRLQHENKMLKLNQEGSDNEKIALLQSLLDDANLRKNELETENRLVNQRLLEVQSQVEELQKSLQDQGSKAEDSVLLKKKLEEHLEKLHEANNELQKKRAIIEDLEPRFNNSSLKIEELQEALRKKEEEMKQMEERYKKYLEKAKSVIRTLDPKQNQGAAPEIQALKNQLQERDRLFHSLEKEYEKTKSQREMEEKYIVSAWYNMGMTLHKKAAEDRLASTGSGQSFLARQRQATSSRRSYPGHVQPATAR

SMILES: O=C(NC1CC1)c1ccc(S(=O)(=O)n2cncn2)cc1 [HHS-0101, 4-((1H-1,2,4-triazol-1-yl)sulfonyl)-N-cyclopropylbenzamide]
- liganded tyrosine site 145 [1]: HHS0101.Y (tyrosine sites that showed >80% reductions (SR >5) in probe labeling in cells treated with compounds (liganded sites))
- liganded tyrosine site 323 [2]: HHS0101.Y|HHS0401.Y|HHS0701.Y (tyrosine sites that showed >80% reductions (SR >5) in probe labeling in cells treated with compounds (liganded sites))
- liganded tyrosine site 957 [3]: HHS0101.Y|HHS0301.Y|HHS0401.Y (tyrosine sites that showed >80% reductions (SR >5) in probe labeling in cells treated with compounds (liganded sites))
- liganded tyrosine site 165 [4]: HHS0101.Y (tyrosine sites that showed >80% reductions (SR >5) in probe labeling in cells treated with compounds (liganded sites))
- liganded tyrosine site 86 [5]: HHS0101.Y|HHS0701.Y (tyrosine sites that showed >80% reductions (SR >5) in probe labeling in cells treated with compounds (liganded sites))
- liganded tyrosine site 289 [6]: HHS0101.Y|HHS0701.Y (tyrosine sites that showed >80% reductions (SR >5) in probe labeling in cells treated with compounds (liganded sites))
- liganded tyrosine site 645 [7]: HHS0101.Y (tyrosine sites that showed >80% reductions (SR >5) in probe labeling in cells treated with compounds (liganded sites))

SMILES: O=C(NCC1CC1)c1ccc(S(=O)(=O)n2cncn2)cc1 [HHS-0201, 4-((1H-1,2,4-triazol-1-yl)sulfonyl)-N-(cyclopropylmethyl)benzamide]
- liganded tyrosine site 578 [8]: HHS0201.Y|HHS0301.Y|HHS0401.Y|HHS0701.Y (tyrosine sites that showed >80% reductions (SR >5) in probe labeling in cells treated with compounds (liganded sites))
- liganded tyrosine site 264 [9]: HHS0201.Y|HHS0401.Y|HHS0701.Y (tyrosine sites that showed >80% reductions (SR >5) in probe labeling in cells treated with compounds (liganded sites))
- liganded tyrosine site 242 [10]: HHS0201.Y (tyrosine sites that showed >80% reductions (SR >5) in probe labeling in cells treated with compounds (liganded sites))
- liganded tyrosine site 18 [11]: HHS0201.Y|HHS0401.Y|HHS0701.Y (tyrosine sites that showed >80% reductions (SR >5) in probe labeling in cells treated with compounds (liganded sites))

SMILES: O=C(NCc1ccccc1)c1ccc(S(=O)(=O)n2cncn2)cc1 [HHS-0401, 4-((1H-1,2,4-triazol-1-yl)sulfonyl)-N-benzylbenzamide]
- liganded tyrosine site 72 [12]: HHS0401.Y (tyrosine sites that showed >80% reductions (SR >5) in probe labeling in cells treated with compounds (liganded sites))
- liganded tyrosine site 148 [13]: HHS0401.Y (tyrosine sites that showed >80% reductions (SR >5) in probe labeling in cells treated with compounds (liganded sites))
- liganded tyrosine site 244 [14]: HHS0401.Y (tyrosine sites that showed >80% reductions (SR >5) in probe labeling in cells treated with compounds (liganded sites))

SMILES: O=C(c1ccc(S(=O)(=O)n2cncn2)cc1)N1CCC(c2ccccc2)CC1 [HHS-0701, (4-((1H-1,2,4-triazol-1-yl)sulfonyl)phenyl)(4-phenylpiperidin-1-yl)methanone]
- liganded tyrosine site 83 [15]: HHS0701.Y (tyrosine sites that showed >80% reductions (SR >5) in probe labeling in cells treated with compounds (liganded sites))
- liganded tyrosine site 416 [16]: HHS0701.Y (tyrosine sites that showed >80% reductions (SR >5) in probe labeling in cells treated with compounds (liganded sites))
- liganded tyrosine site 455 [16]: HHS0701.Y (tyrosine sites that showed >80% reductions (SR >5) in probe labeling in cells treated with compounds (liganded sites))
- liganded tyrosine site 559 [17]: HHS0701.Y (tyrosine sites that showed >80% reductions (SR >5) in probe labeling in cells treated with compounds (liganded sites))

SMILES: O=C(NC1CCCCC1)c1ccc(S(=O)(=O)n2cncn2)cc1 [HHS-0301, 4-((1H-1,2,4-triazol-1-yl)sulfonyl)-N-cyclohexylbenzamide]
- liganded tyrosine site 43 [18]: HHS0301.Y|HHS0401.Y (tyrosine sites that showed >80% reductions (SR >5) in probe labeling in cells treated with compounds (liganded sites))
- liganded tyrosine site 56 [18]: HHS0301.Y (tyrosine sites that showed >80% reductions (SR >5) in probe labeling in cells treated with compounds (liganded sites))
